System: drug-resistant Mycobacterium tuberculosis
Conditions: peptide 10 micrograms per ml, seven days

With CSCC[C@H](NC(=O)[C@H](CC(C)C)NC(=O)CNC(=O)[C@@H](NC(=O)[C@H](Cc1ccccc1)NC(=O)[C@H](Cc1ccccc1)NC(=O)[C@H](CC(=O)O)NC(=O)[C@H](Cc1c[nH]cn1)NC(=O)[C@H](CCSC)NC(=O)[C@@H](N)CC(=O)O)C(C)C)C(N)=O [Neurokinin B] the “% inhibition” value was 0.0%.
